Assay results reported in article PMC4791841, “Nanomolar Inhibitors of Trypanosoma brucei RNA Triphosphatase” (mBio, 2016).
Where two headings read alike, the source gives them in different places. Blank lines part the entries; values can stand above or below the molecule they belong to.

Columns and labels:
SceCet1 = target: T1, SceCet1 (Saccharomyces cerevisiae, UniProt O13297); assay: TLC assay for 32Pi release from [γ-32P]ATP, SceCet1; assay type: biochemical
T1 construct: C-terminal catalytic domain (aa 241 to 539) of S. cerevisiae RTPase (SceCet1); made in house; host or cells: Escherichia coli
T1 sequence (O13297 241-539): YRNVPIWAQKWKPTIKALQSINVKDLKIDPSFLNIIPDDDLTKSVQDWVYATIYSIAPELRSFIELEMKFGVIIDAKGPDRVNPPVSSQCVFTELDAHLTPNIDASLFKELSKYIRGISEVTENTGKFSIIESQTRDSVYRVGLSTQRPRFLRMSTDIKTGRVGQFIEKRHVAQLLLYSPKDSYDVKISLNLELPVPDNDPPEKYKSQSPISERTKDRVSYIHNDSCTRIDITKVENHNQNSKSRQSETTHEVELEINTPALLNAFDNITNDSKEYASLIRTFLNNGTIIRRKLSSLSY

MimiCE = target: T2, MimiCE (Acanthamoeba polyphaga mimivirus, UniProt Q5UQX1); assay: biochemical; assay type: biochemical; conditions: for IC50/IC50 TbCet1, MimiCE: ratio in parentheses; for IC50: read-out: IC50 MimiCE, 7 nM MimiCE, 37°C;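 for all read-outs here: mimivirus capping enzyme triphosphatase ATPase reaction, radiolabeled ATP hydrolysis to Pi quantified by TLC after 10 min, normalized to no-inhibitor control with 5% DMSO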
T2 construct: the N-terminal RTPase domain (amino acids [aa] 1 to 237) of mimivirus capping enzyme (MimiCE); HisSmt3 (N, cleaved yes); made in house; host or cells: Escherichia coli
T2 sequence (Q5UQX1 1-237): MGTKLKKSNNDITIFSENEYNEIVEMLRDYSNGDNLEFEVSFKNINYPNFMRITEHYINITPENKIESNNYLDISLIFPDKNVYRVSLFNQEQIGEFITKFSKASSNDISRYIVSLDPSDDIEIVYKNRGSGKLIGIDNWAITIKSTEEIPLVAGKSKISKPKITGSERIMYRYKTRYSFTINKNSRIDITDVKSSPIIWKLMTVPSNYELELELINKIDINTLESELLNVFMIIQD

Lef4 = target: T3, Lef4 (Autographa californica nuclear polyhedrosis virus, UniProt P41477); assay: TLC assay for 32Pi release from [γ-32P]ATP, Lef4; assay type: biochemical, Autographa californica nucleopolyhedrovirus (AcNPV); conditions: for IC50: 50 nM Lef4, 37°C, read-out: IC50 Lef4; for IC50/IC50 TbCet1, Lef4: ratio in parentheses;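 for all read-outs here: Lef4 RNA triphosphatase cleaving radiolabelled ATP over 10 min at 37°C, hydrolysis set relative to inhibitor-free 5% DMSO controls, comparisons made against TbCet1 tested the same way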
T3 construct: the N-terminal RTPase domain (aa 1 to 236) of AcNPV Lef4 capping enzyme; HisSmt3 (N, cleaved yes); made in house; host or cells: Escherichia coli
T3 sequence (P41477 1-236): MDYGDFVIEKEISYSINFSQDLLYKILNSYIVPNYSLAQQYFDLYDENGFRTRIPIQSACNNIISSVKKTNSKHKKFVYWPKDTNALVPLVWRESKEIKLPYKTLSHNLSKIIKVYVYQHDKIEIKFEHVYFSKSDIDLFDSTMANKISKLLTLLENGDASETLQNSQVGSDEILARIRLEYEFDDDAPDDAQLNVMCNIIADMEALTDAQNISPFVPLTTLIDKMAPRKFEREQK

CthTTM = target: T4, CthTTM (Acetivibrio thermocellus, UniProt A3DIJ8); assay: TLC assay for 32Pi release from [γ-32P]ATP, CthTTM; assay type: biochemical, Clostridium thermocellum
T4 sequence (A3DIJ8 1-156): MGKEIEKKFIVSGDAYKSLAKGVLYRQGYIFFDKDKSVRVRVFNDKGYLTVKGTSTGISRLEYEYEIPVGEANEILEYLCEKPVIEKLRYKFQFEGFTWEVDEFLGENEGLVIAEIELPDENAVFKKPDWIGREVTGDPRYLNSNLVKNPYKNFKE

TbCet1 = target: T5, TbCet1 (Trypanosoma brucei brucei, UniProt Q582T2); assay: TLC assay for 32Pi release from [γ-32P]ATP, TbCet1; conditions: for IC50: read-out: IC50 TbCet1 by 32P assay, 2.2 nM TbCet1, 0.2 mM ATP, 2 mM Mn2+, 10 min 37°C; for inhibition of TbCet1 (in words): 32P phosphate release assay
T5 sequence (Q582T2 1-253): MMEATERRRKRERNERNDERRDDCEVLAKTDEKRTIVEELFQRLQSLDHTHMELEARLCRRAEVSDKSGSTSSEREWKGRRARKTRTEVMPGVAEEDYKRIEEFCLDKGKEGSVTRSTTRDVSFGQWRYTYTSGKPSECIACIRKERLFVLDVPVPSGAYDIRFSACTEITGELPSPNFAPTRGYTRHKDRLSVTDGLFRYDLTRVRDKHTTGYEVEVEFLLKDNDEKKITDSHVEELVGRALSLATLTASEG

[1] = 25 nM SceCet1, 30°C; read-out: IC50 SceCet1
[2] = 500 nM CthTTM, 37°C; read-out: IC50 CthTTM
[3] = read-out: IC50 SceCet1; 25 nM SceCet1, 30°C
[4] = read-out: IC50 CthTTM; 500 nM CthTTM, 37°C

SMILES: O=C(/C=C/c1ccc(O)c(O)c1)OC1[C@H](OC(=O)/C=C/c2ccc(O)c(O)c2)CC(O)(C(=O)O)C[C@H]1OC(=O)/C=C/c1ccc(O)c(O)c1 (stereo in doubt) [Compound 1D, 3,4,5-Tricaffeoylquinic acid]
- fold lower potency against SceCet1 than against TbCet1 (SceCet1): 67 fold
- IC50 (SceCet1; [1]): 10 µM
- IC50/IC50 TbCet1, SceCet1 (SceCet1; ratio in parentheses): 67
- fold lower potency against MimiCE than against TbCet1 (MimiCE): 107 fold
- IC50/IC50 TbCet1, MimiCE (MimiCE): 107
- IC50 (MimiCE): 16 µM
- fold lower potency against Lef4 than against TbCet1 (Lef4): 48 fold
- IC50 (Lef4): 7.2 µM
- IC50/IC50 TbCet1, Lef4 (Lef4): 48
- fold lower potency against CthTTM than against TbCet1 (CthTTM): 1,100 fold
- IC50 (CthTTM; [2]): 160 µM
- IC50/IC50 TbCet1, CthTTM (CthTTM; ratio in parentheses): 1,067

SMILES: O=C(Oc1cc(C(=O)O[C@@H]2C[C@@](O)(C(=O)O)C[C@@H](O)[C@@H]2O)cc(O)c1O)c1cc(O)c(O)c(O)c1 [Compound 1C, 5-galloyl-galloylquinic acid]
- IC50 (SceCet1; [3]): > 500 µM
- fold lower potency against Lef4 than against TbCet1 (Lef4): 680 fold
- IC50 (Lef4): 75 µM
- IC50/IC50 TbCet1, Lef4 (Lef4): 682
- fold more potent as TbCet1 inhibitor than 5-galloylquinic acid (compound 1O) (TbCet1): 1,100 fold
- IC50 (CthTTM; [4]): > 500 µM

SMILES: O=C(Oc1cc(C(=O)O[C@@H]2C[C@@](O)(C(=O)O)C[C@@H](OC(=O)c3cc(O)c(O)c(O)c3)[C@@H]2O)cc(O)c1O)c1cc(O)c(O)c(O)c1 [Compound 1F, 3-galloyl,5-galloyl-galloylquinic acid]
- IC50 (SceCet1; [3]): > 500 µM
- IC50/IC50 TbCet1, MimiCE (MimiCE): 15
- IC50 (MimiCE): 3.4 µM
- IC50 (Lef4): 33 µM
- IC50/IC50 TbCet1, Lef4 (Lef4): 150
- IC50/IC50 TbCet1, CthTTM (CthTTM; ratio in parentheses): 95
- IC50 (CthTTM; [4]): 21 µM

SMILES: O=C(/C=C/c1ccc(O)c(O)c1)O[C@@H]1C[C@](OC(=O)/C=C/c2ccc(O)c(O)c2)(C(=O)O)C[C@@H](O)[C@H]1O [Compound 1G, 1,3-dicaffeoylquinic acid]
- IC50 (SceCet1; [1]): > 500 µM
- IC50/IC50 TbCet1, MimiCE (MimiCE): 11
- IC50 (MimiCE): 3.7 µM
- IC50 (Lef4): 22 µM
- IC50/IC50 TbCet1, Lef4 (Lef4): 65
- IC50 (CthTTM; [2]): 55 µM
- IC50/IC50 TbCet1, CthTTM (CthTTM; ratio in parentheses): 162

SMILES: COc1ccc(/C=C/C(=O)O[C@@H]2C[C@@](O)(C(=O)O)C[C@@H](O)[C@@H]2O)cc1O [Compound 1J, 5-p-feruoylquinic acid]
- IC50 (SceCet1; [1]): > 500 µM
- IC50 (TbCet1): 2.4 µM
- IC50 (CthTTM; [2]): > 500 µM

SMILES: COc1cc(C=CC(=O)OC2[C@H](O)CC(O)(C(=O)O)C[C@H]2O)ccc1O (stereo partly shown) [Compound 1P, 4-feruoylquinic acid]
- fold less effective against TbCet1 than 5-feruoylquinic acid (TbCet1): 13 fold
- IC50 (TbCet1): 160 µM

SMILES: O=C(/C=C/c1ccc(O)c(O)c1)O[C@@H]1C[C@@](O)(C(=O)O)C[C@@H](O)[C@@H]1O [Compound 1T, 5-caffeoylquinic acid]
- IC50 (TbCet1): > 500 µM

SMILES: O=C(O)[C@]1(O)C[C@@H](O)[C@@H](O)[C@H](O)C1 [Quinic acid, reference compound]
- inhibition of TbCet1 (in words) (TbCet1): no inhibition

Continued, values first:

- inhibition of TbCet1 (in words) (TbCet1): inactive
- IC50 (TbCet1): > 500 µM
SMILES: COc1cc(/C=C/C(=O)OC2(C(=O)O)C[C@@H](O)C(O)[C@H](O)C2)ccc1O (stereo partly shown) [Compound 1R, 1-feruoylquinic acid]

- inhibition of TbCet1 (in words) (TbCet1): did not inhibit
- IC50 (TbCet1): > 500 µM
SMILES: O=C(C=Cc1ccccc1)OC1C=C(C(=O)O)CC(OC(=O)C=Cc2ccccc2)C1O (stereo not shown) [Compound 6D, 3,5-dicannamolylshikimate]

- inhibition of TbCet1 (in words) (TbCet1): did not inhibit
- IC50 (TbCet1): > 500 µM
SMILES: O=C(/C=C/c1ccc(O)c(O)c1)O[C@@H]1CC(C(=O)O)=C[C@@H](O)[C@H]1O [Compound 6E, 5-caffeoylshikimate]

- inhibition of TbCet1 (in words) (TbCet1): no inhibition
SMILES: O=C(O)c1cc(O)c(O)c(O)c1 [gallic acid, 3,4,5-trihydroxybenzoic acid, reference compound]
